# Assay results from US20170056351A1, “COMPOSITION FOR INDUCING TUMOR IMMUNITY” (UNIVERSITY OF OCCUPATIONAL AND ENVIRONMENTAL HEALTH, JAPAN, priority 2014, published 2017).
# Tests used:
# [1] = system: Iba1-positive macrophages in subcutaneously transplanted 9L gliosarcoma; assay: Pathologic examination of subcutaneous tumor, Iba1 staining of macrophages and microdensitometry; format: in vivo, rat
# Experimental: After completion of the immobilization, all of the tumor samples were cut at the center of tumor in the longitudinal direction. The obtained fragments were each stained with hematoxylin and eosin (HE), and were also stained with Iba1 or CD68 for detection of macrophages. Briefly, the sample was bathed in water for pre-treatment (40 minutes, 95° C.), and the deparaffinized portion was then washed with KN Buffer (KN-09002; Pathology Institute Corp, Toyama, Japan). Subsequently, the fragment was incubated with goat polyclonal anti-Iba1 (1:3000, ab107159, Abcam) or anti-CD68 antibody (1:100, MCA-341R, AbD) for 30 minutes, and were further washed with KN Buffer. Subsequently, regarding Iba1, the fragment was incubated with Simple Stain™ MAX-PO (G) (H1301; Nichirei Bioscience Inc. Japan) for 30 minutes. Regarding CD68, the fragment was incubated with Envision+Dual Link HRP-label/polymer reagent (Dako: K4061) for 30 minutes. The resultant was finally washed with KN Buffer, and was then treated with diaminobenzidine (DAB) for 10 minutes for color development. […]
# Moreover, the procedures of the previous study (Prall F, Maletzki C, Linnebacher M: Microdensitometry of osteopontin as an immunohistochemical prognostic biomarker in colorectal carcinoma tissue microarrays: potential and limitations of the method in ‘biomarker pathology’. Histopathology 61: 823-32, 2012.) were partially modified, and using public domain software, Image J (Wayne Rasband, National Institute of Mental Health, Bethesda, Md.), microdensitometry was carried out regarding immunohistochemical quantitative evaluation of Iba1 on a digital photomicrograph. […] In order to quantify the color signals of immunohistochemical DAB of Iba1, the image data of all samples were transferred into Image J, and were then converted to 8-bit grayscale images. […] The present inventors have defined the mean gray value (MGV) of all of the tumor samples in a control group (n=5) as a representative value, and the relative intensities of MGVs in other groups to the aforementioned representative value were then calculated.
# T98G cells = assay: Intracellular level of 5-ALA-induced PpIX by flow cytometric analysis, T98G; format: cell-based, human; settings: 1 mM 5-ALA for 4 hours, relative to 5-ALA-not-treated cells, average±SE
# Experimental: Two types of rat glioma cell lines (9L and C6) and human glioma cell lines (U251 and T98G) were used. Before use, 9L and T98G were cultured in RPMI-1640 at 37° C. for several days, whereas C6 and U251 were cultured in 10% FBS-added Dulbecco's modified Eagle's medium (DMEM) at 37° C. for several days. These cell lines were maintained at 37° C. in 5% CO2 in a humidified incubator. The cells were subcultured at an exponential growth phase thereof, using 0.05% trypsin solution containing 0.5 mM ethylenediamine tetraacetate. 70% confluent cells were used in the subsequent experiments. […]
# The cells were seeded on a 100-mm culture dish, and were then cultured. […] Immediately after the recovery, the cells were re-suspended in cold PBS/FBS, and were then analyzed using a flow cytometer (EC800; Sony Biotechnology, Tokyo, Japan). Generally, 30,000 cells contained in each sample were evaluated. Using 488-nm argon ion laser, fluorescence was excited from intracellular PpIX, and the fluorescence was then detected using a 640/30 nm band-pass filter. […] The flow cytometric data were analyzed using FlowJo (Tree Star Inc., Ashland, Oreg., USA). The mean fluorescence intensity (MFI) of PpIX fluorescence in the 5-ALA-treated cells, with respect to that of 5-ALA-not-treated cells, was calculated for each cell line.
smiles,measurement,setting,value
"NCC(=O)CCC(=O)O [ALA, 5-aminolevulinic acid]","mean gray value (MGV) of Iba1, microdensitometry, versus other groups","[1]; ALA multiple-dose + ionizing radiation multiple-dose group, p<0.05 vs RT group, p<0.01 vs ALA group",significantly higher
same,Iba1-positive macrophages in subcutaneous tumor,"[1]; ALA multiple-dose administration group, 16th day after treatment",mainly gathered to the surface of the subcutaneous tumor
same,gathering of Iba1-positive macrophages to surface and inside of subcutaneous tumor,"[1]; ionizing radiation combined with ALA administration, 16th day after treatment",significantly observed
same,relative MFI of PpIX fluorescence,T98G cells,15.3±0.89
